Results as given in patent publication US10323026B2, “Heterocyclic compound” (Takeda Pharmaceutical Company Limited, priority 2016, dated 2019).
Like-named read-outs stand apart in the source and are kept apart here.

Assays:
[1] = molecular target: T1, His-hMAGL (recombinant polyhistidine tagged human MAGL protein) (Homo sapiens, UniProt Q99685); experiment: Measurement of MAGL inhibitory activity (RapidFire-mass spectrometry of arachidonic acid produced from 2-arachidonylglycerol); assay type: biochemical; settings: read-out: % inhibition (10 μM)
T1 construct: polyhistidine (His) (N); made in house; host or cells: E. coli BL21(DE3)
T1 sequence (Q99685 1-303): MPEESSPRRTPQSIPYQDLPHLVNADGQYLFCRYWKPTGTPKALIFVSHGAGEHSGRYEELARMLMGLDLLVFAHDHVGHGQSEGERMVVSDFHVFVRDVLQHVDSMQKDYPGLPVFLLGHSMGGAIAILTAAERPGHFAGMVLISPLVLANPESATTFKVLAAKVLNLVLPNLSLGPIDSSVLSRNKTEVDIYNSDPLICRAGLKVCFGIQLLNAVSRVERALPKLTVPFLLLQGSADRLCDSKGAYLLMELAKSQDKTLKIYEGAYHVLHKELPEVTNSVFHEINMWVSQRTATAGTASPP
Procedure, shortened: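 After quenching with acetonitrile containing 3 μM arachidonic acid-d8, the arachidonic acid formed was measured by online SPE RapidFire-MS/MS in negative SRM mode and corrected against the d8 standard. Inhibition (%) was calculated relative to compound-free and enzyme-free groups.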

[2] = system: intracerebral 2-AG and arachidonic acid; experiment: Measurement of intracerebral 2-AG and arachidonic acid concentrations; assay type: in vivo, mouse (C57BL/6J); settings: for 2-AG concentration / arachidonic acid concentration: cerebrum of male C57BL/6J mice, 3 mg/kg body weight by gavage, isolated 1 hour after administration; for 2-AG concentration: control 9.9; for arachidonic acid concentration: control 163.5; for migration into brain / intracerebral 2-AG concentration compared to control / intracerebral arachidonic acid concentration compared to control: oral administration to C57BL/6J mice; for intracerebral 2-AG concentration compared to control / intracerebral arachidonic acid concentration compared to control: result in words
Experimental: As the mouse, 8-week-old male C57BL/6J mice (CLEA Japan, Inc.) were used (6 mice/group). Administration solutions were prepared by suspending the test compounds (compound 1 (compound of Example 6), compound 2 (compound of Example 93) and compound 3 (compound of Example 97)) in 0.5% methylcellulose solution (Wako Pure Chemical Industries, Ltd.). The dose of the test compound was prepared to be 3 mg/kg body weight/10 mL. The test compounds were administered by gavage at 3 mg/kg body weight. The cerebrum was isolated after the administration of the test compound (isolation time after the administration of the test compound is shown in Table 3), and the cerebrum hemisphere was extracted. The obtained cerebrum hemisphere was frozen on dry ice, and the frozen tissue weight was measured.
The cerebral tissue weight was measured, and cerebral tissue was homogenized with 4-fold (v/w) of isopropanol (IPA), and double diluted with IPA. To the diluted sample (200 μL) was added internal standard solution (5 μL) ([5,6,8,9,11,12,14,15-D8]-(5Z,8Z,11Z,14Z)5,8,11,14-eicosatetraenoic acid (AA-d8, 0.5 nmol/mL IPA) and [5,6,8,9,11,12,14,15-D8]-(5Z,8Z,11Z,14Z)-5,8,11,14-eicosatetraenoyl-2-glycerol ester (2-AG-d8, 0.5 nmol/mL IPA)), and the mixture was centrifuged at 15000 rpm for 5 min. The supernatant was injected to liquid chromatographymass spectrometer to perform quantitative analysis.
For liquid chromatography, Shimadzu LC20A system (Shimadzu Corporation) was used. The separation was performed by gradient elution method with mobile phase A (10 mmol/L HCOONH4/HCOOH (100:0.2, v/v)) and mobile phase B (ethanol/IPA (3:2, v/v)) using Shim-pack XR-ODS (2.2 μm, 2.0×30 mm, Shimadzu Corporation) at column temperature of 50° C., at flow rate of 0.5 mL/min. The gradient conditions are as follows: 0-1 min, 1% B; 1-1.2 min, 1-55% B; 1.2-2.7 min, 55-75% B; 2.7-3.5 min, 75-99% B; 3.5-6 min, 99% B; 6-8 min, 1% B.
For mass spectrometer, API5000 (AB SCIEX) was used. The eluate from the liquid chromatography was directly ionized by turbospray ionization method, where (5Z,8Z,11Z,14Z)5,8,11,14-eicosatetraenoic acid (AA) and AA-d8 were measured by negative ionization mode, and (5Z,8Z,11Z,14Z)5,8,11,14-eicosatetraenoyl-2-glycerol ester (2-AG) and 2-AG-d8 were measured by positive ionization mode.
A solution for calibration curve was prepared to the concentration of 2, 5, 10, 20, 50, 100, 200, 500, 1000 nmol/mL of acetonitrile. These solutions (10 μL) was mixed with 200 μL of IPA and 5 μL of internal standard solution, and the mixture was centrifuged at 15000 rpm for 5 min, and the supernatant was injected to liquid chromatography mass spectrometer to perform analysis. The calibration curve was drawn by regression line with a weighting of 1/x^2, and the quantitativity was confirmed by accuracy of 100±20% and R^2>0.99.

[3] = test compound 10 μM, His-hMAGL, substrate 2-arachidonylglycerol, 60 min preincubation

Compound | inhibition at 10 µM [1, 3] | 2-AG concentration [2] | arachidonic acid concentration [2] | migration into brain [2] | intracerebral 2-AG concentration compared to control [2] | intracerebral arachidonic acid concentration compared to control [2] | inhibition at 10 µM [1]
O=C1N[C@]2(CO1)C[C@H](C(=O)N1CC(OCc3ccc(C(F)(F)F)cc3F)C1)C2 [Example 6, (2s,4s)-2-((3-((2-fluoro-4-(trifluoromethyl)benzyl)oxy)azetidin-1-yl)carbonyl)-7-oxa-5-azaspiro[3.4]octan-6-one] | 100% | 124.5 nmol/g | 31.7 nmol/g | migrated into brain | increased significantly | decreased significantly | –
Cc1cc(C(F)(F)F)ccc1COC1CN(C(=O)[C@H]2C[C@]3(COC(=O)N3)C2)C1 [Example 93, (2s,4s)-2-((3-((2-methyl-4-(trifluoromethyl)benzyl)oxy)azetidin-1-yl)carbonyl)-7-oxa-5-azaspiro[3.4]octan-6-one] | 100% | 125.2 nmol/g | 42.6 nmol/g | migrated into brain | increased significantly | decreased significantly | –
Cc1ccc(COC2CN(C(=O)[C@H]3C[C@]4(COC(=O)N4)C3)C2)cc1Cl [Example 97, (2s,4s)-2-((3-((3-chloro-4-methylbenzyl)oxy)azetidin-1-yl)carbonyl)-7-oxa-5-azaspiro[3.4]octan-6-one] | – | 131.9 nmol/g | 60.9 nmol/g | migrated into brain | increased significantly | decreased significantly | 100%
